From patent US20190030046A1, “USE OF PURE COMPOUNDS EXTRACTED FROM ANTRODIA CAMPHORATA” (priority 2016, published 2019)

What was measured:
[1] = test system: phospho-Akt(Ser473)/total-Akt(Ser473); experiment: phospho-Akt(Ser473)/total-Akt in C2C12 myotube cells (Western blot); assay type: cell-based; details: TT 10 and 25 μg/mL, 25 min
Experimental: (§1) In the present invention, C2C12 skeletal myoblasts (ATCC, CRL-1772) were maintained in growth media consisting of Dulbecco's modified Eagle's medium (DMEM) (Gibco BRL) and supplemented with 10% Fetal Bovine Serum (FBS) (Hyclone) and 100 U/mL penicillin/100 μg/mL streptomycin (Gibco BRL), and split 1:4 using 0.05% trypsin when 80% confluent. Myoblasts were diluted and placed in a 9 cm-diameter dish. Cells were cultured to achieve 80%-90% confluency and then the growth media was changed as 2% FBS/DMEM every 24 h for 5-7 days.
(§2) In experiments for determining GLUT4 and p-Akt(Ser473)/t-Akt proteins in tubes, differentiated C2C12 cells were serum-starved in DMEM/BSA for 2 h at 37° C. prior to incubation with MeOH crude extract (at 20, 100, 200, and 500 μg/mL), test compounds (at 1, 5, 10, and 25 μg/mL), or vehicle for 25 min, or 100 nM insulin for 25 min.
(§3) The cultures obtained by cell culture above were centrifuged, and the resulting pellet was resuspended in a homogenization buffer. The forgoing steps were performed with a filtration membrane. Protein concentrations were measured using a BCA assay (Pierce). Equal amounts of protein were diluted four times in SDS sample buffer, and subjected to SDS PAGE and Western blotting with antibodies specific for Akt, p-Akt Ser^473, and GLUT4. Density blotting analysis was performed using Alpha Easy FC software.

[2] = test system: SREBP-2; experiment: Semiquantitative RT-PCR in liver tissue: SREBP-2; assay type: in vivo, C57BL/6J mice; details: vs HF, 4 weeks
Experimental: (§4) The difference indicates the daily food intake.
(§5) Total RNA from liver tissue was isolated with a Trizol Reagent (Molecular Research Center, Inc., Cincinnati, Ohio, USA) according to the manufacturer's instructions. The integrity of the extracted total RNA was examined by 2% agarose gel electrophoresis, and the RNA concentration was determined by […] ultraviolet (UV) light absorbency at 260 nm and 280 nm (Spectrophotometer U-2800A, Hitachi). The total RNA (1 μg) was reverse transcribed to cDNA, and 5 μL Moloney murine leukemia virus reverse transcriptase (TEpicentre, Madison, Wis., USA). The PCR was performed in a final 25 μL containing 1 U Blend Taq-Plus (TOYOBO, Japan), 10 μL of the RT cDNA product, 10 μM of each forward (F) and reverse (R) primer, 75 mM Tris-HCL (pH 8.3) containing 1 mg/L Tween 20 (pH 8.3, also known as polyoxyethylene sorbitan monolaurate), 2.5 mM dNTP (deoxy-ribonucleoside triphosphate), and 2 mM MgCl2 (magnesium chloride). The PCR products were analyzed by 2% agarose gel and stained with ethidium bromide.

[3] = test system: FAS; experiment: Western blot of FAS protein in liver and adipose tissue of HFD mice; details: compared to HF, 4 weeks
Experimental: (§6) The HFD mice were subdivided into 6 groups (9 per group) followed by 8-week induction. […] Following four-week treatment and feeding, the food was removed, and the mice were fasted for 12 h and then sacrificed. Tissue samples required were collected from the mice and weighted. Some of the tissue samples were immediately stored at −80° C. and frozen for subsequent target gene analysis. Plasma samples were collected via centrifugation of whole blood at 1600×g for 15 min at 4° C., followed by plasma separation within 30 min.
(§7) We determined PPARα and FAS protein expression levels in liver tissue, PPARγ and FAS protein expression levels in adipose tissue, and membrane GLUT4 expression in skeletal muscle adipose. The total membrane fraction was collected with the buffer and determined as previously described. The membrane GLUT4, p-AMPK, and total AMPK protein content were determined by Western Blotting as previously described.

[4] = test system: UCP3; experiment: Semiquantitative RT-PCR in liver tissue: UCP3; assay type: in vivo, C57BL/6J mice; details: vs HF, 4 weeks
Experimental: as §4, §5

[5] = test system: membrane GLUT4; experiment: Western blot of skeletal muscle membrane GLUT4 in HFD mice; details: compared to HF, 4 weeks
Experimental: as §6, §7

[6] = test system: PPARγ; experiment: Western blot of PPARγ protein in liver and adipose tissue of HFD mice; details: compared to HF, 4 weeks
[7] = test system: CPT-1a; experiment: Semiquantitative RT-PCR in liver tissue: CPT-1a; assay type: in vivo, C57BL/6J mice; details: vs HF, 4 weeks
Experimental: as §4, §5

[8] = HFD-induced diabetic mice: histopathology (H-E) of epididymal white adipose and liver tissue; assay type: in vivo, C57BL/6J mice; details: for Adipocyte area: epididymal white adipose, 4 weeks
Experimental: as §4
Examination was performed for parts of EWAT (epididymal white adipose) and liver tissue specimens collected. The specimens above were soaked in formalin and neutral buffered solution and embedded in paraffin. Parts therein (8 μm) were cut and stained with hematoxylin and eosin. Images were photographed by a microscope (Olympus BX51, Olympus, Tokyo, Japan). Please refer to FIGS. 3(A) and 3(B).

[9] = test system: membrane GLUT4; experiment: Membrane GLUT4 protein expression in C2C12 myotube cells (Western blot); assay type: cell-based; details: 1, 5, 10, and 25 μg/mL, 25 min
Experimental: as §1, §2, §3

[10] = test system: PPARα; experiment: Western blot of PPARα protein in liver of HFD mice; details: compared to HF, 4 weeks
[11] = test system: aP2; experiment: Semiquantitative RT-PCR in liver tissue: aP2; assay type: in vivo, C57BL/6J mice; details: vs HF, 4 weeks
Experimental: as §4, §5

[12] = HFD-induced diabetic mice: liver lipids; assay type: in vivo, C57BL/6J mice; details: 4 weeks
[13] = test system: phospho-AMPK(Thr172); experiment: Western blot of phospho-AMPK(Thr172)/total-AMPK in skeletal muscle and liver of HFD mice; details: compared to HF, 4 weeks
Experimental: as §6, §7

[14] = test system: GPAT; experiment: Semiquantitative RT-PCR in liver tissue: GPAT; assay type: in vivo, C57BL/6J mice; details: vs HF, 4 weeks
Experimental: as §4, §5

C=C(CC[C@@H](C(=O)O)[C@H]1CC[C@@]2(C)C3=CC[C@H]4C(C)(C)[C@@H](O)CC[C@]4(C)C3=CC[C@]12C)C(C)C [TT, dehydroeburicoic acid]
protein expression level of phospho-Akt(Ser473)/total-Akt(Ser473) [1]: increase | SREBP-2 mRNA expression level in liver ([2]; HF+TT1, 10 mg/kg/day oral): decreased | SREBP-2 mRNA expression level in liver ([2]; HF+TT2, 20 mg/kg/day oral): decreased | SREBP-2 mRNA expression level in liver ([2]; HF+TT3, 40 mg/kg/day oral): decreased | FAS protein expression level in adipose tissue ([3]; HF+TT1, 10 mg/kg/day oral): significantly decreased | FAS protein expression level in liver ([3]; HF+TT1, 10 mg/kg/day oral): significantly decreased | FAS protein expression level in adipose tissue ([3]; HF+TT2, 20 mg/kg/day oral): significantly decreased | FAS protein expression level in liver ([3]; HF+TT2, 20 mg/kg/day oral): significantly decreased | FAS protein expression level in adipose tissue ([3]; HF+TT3, 40 mg/kg/day oral): significantly decreased | FAS protein expression level in liver ([3]; HF+TT3, 40 mg/kg/day oral): significantly decreased | UCP3 mRNA expression level in liver ([4]; HF+TT2, 20 mg/kg/day oral): increased | UCP3 mRNA expression level in liver ([4]; HF+TT3, 40 mg/kg/day oral): increased | membrane expression level of GLUT4 in skeletal muscle ([5]; HF+TT1, 10 mg/kg/day oral): significantly increased | membrane expression level of GLUT4 in skeletal muscle ([5]; HF+TT2, 20 mg/kg/day oral): significantly increased | membrane expression level of GLUT4 in skeletal muscle ([5]; HF+TT3, 40 mg/kg/day oral): significantly increased | PPARγ protein expression level in adipose tissue ([6]; HF+TT1, 10 mg/kg/day oral): significantly decreased | PPARγ protein expression level in liver ([6]; HF+TT1, 10 mg/kg/day oral): significantly decreased | PPARγ protein expression level in adipose tissue ([6]; HF+TT2, 20 mg/kg/day oral): significantly decreased | PPARγ protein expression level in liver ([6]; HF+TT2, 20 mg/kg/day oral): significantly decreased | PPARγ protein expression level in adipose tissue ([6]; HF+TT3, 40 mg/kg/day oral): significantly decreased | PPARγ protein expression level in liver ([6]; HF+TT3, 40 mg/kg/day oral): significantly decreased | CPT-1a mRNA expression level in liver ([7]; HF+TT1, 10 mg/kg/day oral): increased | CPT-1a mRNA expression level in liver ([7]; HF+TT2, 20 mg/kg/day oral): increased | CPT-1a mRNA expression level in liver ([7]; HF+TT3, 40 mg/kg/day oral): increased | Adipocyte area ([8]; HF+TT1, 10 mg/kg/day oral): 6872.5 ± 160.8 μm^2 | Adipocyte area ([8]; HF+TT2, 20 mg/kg/day oral): 6530.2 ± 148.2 μm^2 | Adipocyte area ([8]; HF+TT3, 40 mg/kg/day oral): 5972.4 ± 279.5 μm^2 | liver ballooning degeneration ([8]; pathohistological staining): reduce | protein expression level of membrane GLUT4 [9]: increase | PPAR protein expression level in liver ([10]; HF+TT1, 10 mg/kg/day oral): significantly increased | PPAR protein expression level in liver ([10]; HF+TT2, 20 mg/kg/day oral): significantly increased | PPAR protein expression level in liver ([10]; HF+TT3, 40 mg/kg/day oral): significantly increased | aP2 mRNA expression level in liver ([11]; HF+TT1, 10 mg/kg/day oral): decreased | aP2 mRNA expression level in liver ([11]; HF+TT2, 20 mg/kg/day oral): decreased | aP2 mRNA expression level in liver ([11]; HF+TT3, 40 mg/kg/day oral): decreased | Liver lipids: Total lipid ([12]; HF+TT1, 10 mg/kg/day oral): 64.4 mg/g | Liver lipids: Triacylglycerol ([12]; HF+TT1, 10 mg/kg/day oral): 53 µmol/g | Liver lipids: Total lipid ([12]; HF+TT2, 20 mg/kg/day oral): 61.7 mg/g | Liver lipids: Triacylglycerol ([12]; HF+TT2, 20 mg/kg/day oral): 48 µmol/g | Liver lipids: Total lipid ([12]; HF+TT3, 40 mg/kg/day oral): 57.9 mg/g | Liver lipids: Triacylglycerol ([12]; HF+TT3, 40 mg/kg/day oral): 47.1 µmol/g | expression level of p-AMPK/t-AMPK proteins in liver ([13]; HF+TT1, 10 mg/kg/day oral): significantly increased | expression level of phospho-AMPK/total-AMPK in skeletal muscle ([13]; HF+TT1, 10 mg/kg/day oral): significantly increased | expression level of p-AMPK/t-AMPK proteins in liver ([13]; HF+TT2, 20 mg/kg/day oral): significantly increased | expression level of phospho-AMPK/total-AMPK in skeletal muscle ([13]; HF+TT2, 20 mg/kg/day oral): significantly increased | expression level of p-AMPK/t-AMPK proteins in liver ([13]; HF+TT3, 40 mg/kg/day oral): significantly increased | expression level of phospho-AMPK/total-AMPK in skeletal muscle ([13]; HF+TT3, 40 mg/kg/day oral): significantly increased | GPAT mRNA expression level in liver ([14]; HF+TT1, 10 mg/kg/day oral): decreased | GPAT mRNA expression level in liver ([14]; HF+TT2, 20 mg/kg/day oral): decreased | GPAT mRNA expression level in liver ([14]; HF+TT3, 40 mg/kg/day oral): decreased
